Experimental findings from patent US3989687A, “4-Oxo-1-pyridinyl penicillin derivatives” (Richardson-Merrell Inc., priority 1975, dated 1976) are described below.

Converted amounts (≈) assume the structure as drawn. Structures can show the parent of a compound that is named as a salt. Where two headings read alike, the source gives them in different places.

One data set relates to Streptococcus pyogenes. In words: in vitro agar plate filter paper disc test, zones of inhibition: Streptococcus pyogenes. Particulars: read-out: Minimal inhibiting concentration, Streptococcus pyogenes. Format: cell-based. The protocol: (§1) Specific nutrient agar plates are completely innoculated with the various test organisms. Filter paper discs are placed on the surface of the agar and wetted with 0.1 ml. of a solution containing 10, 100 and 1,000 micrograms of the test compound. Zones of inhibition of microbial growth are used to indicate the antibacterial activity of the test compound against the various test organisms employed.
(§2) The following table summarizes the in vitro activity of the following representative compounds: 6-[2-(4-oxo-1-pyridinyl)acetylamino]penicillanicacid, sodium salt (1), 7-[2-(4-oxo-1-pyridinyl)acetylamino]desacetoxycephalosporanic acid (2), 6-[2-(3,5-diiodo-4-oxo-1-pyridinyl)acetylamino]penicillanic acid, sodium salt (3), 7-[2-(2,6-dimethyl-4-oxo-1-pyridinyl)acetylamino]desacetoxycephalosporanicacid, sodium salt (4), 7-[2-(4-oxo-1-pyridinyl)acetylamino]cephalosporanicacid, sodium salt (5) and 6-[2-(4-oxo-1-quinolinyl)acetylamino]penicillanic acid, sodium salt (6).

The nature of another data set: acid resistance. The format is physicochemical.
Data set [1] deals with Salmonella schottmuelleri. The experiment in a line: in vitro agar plate filter paper disc test, zones of inhibition: Salmonella schottmuelleri. Conditions: read-out: Minimal inhibiting concentration, Salmonella schottmuelleri. Format: cell-based. The protocol: as §1, §2
In data set [2] the test system is (Penicillinase Producing) Staphylococcus aureus. In words: in vitro agar plate filter paper disc test, zones of inhibition: penicillinase producing Staphylococcus aureus. The format is cell-based. Particulars: read-out: Minimal inhibiting concentration, (Penicillinase Producing) Staphylococcus aureus. The protocol:
as §1, §2

Another data set deals with Staphylococcus aureus. In words: in vitro agar plate filter paper disc test, zones of inhibition: Staphylococcus aureus. The format is cell-based. Particulars: read-out: Minimal inhibiting concentration, Staphylococcus aureus. The protocol:
as §1, §2

Where [3] appears, read: in vitro, 0.1 ml. of a solution containing 10, 100 and 1,000 micrograms on filter paper discs.
[4] abbreviates: in vitro, penicillinase producing strain, 0.1 ml. of a solution containing 10, 100 and 1,000 micrograms on filter paper discs.

Turning to `CC1(C)S[C@@H]2C(NC(=O)Cn3ccc(=O)cc3)C(=O)N2[C@H]1C(=O)[O-].[Na+]` (stereo partly drawn) [(1), 6-[2-(4-oxo-1-pyridinyl)acetylamino]penicillanicacid, sodium salt], the MIC in the data set on Streptococcus pyogenes is 1000 µg/mL; in data set [1] it was 100 µg/mL; in data set [2] it was 1000 µg/mL; with Staphylococcus aureus it was 10 µg/mL. The “Acid Resistance” value in the data set “acid resistance” is “Yes”.

On to `CC1=C(C(=O)O)N2C(=O)C(NC(=O)Cn3c(C)cc(=O)cc3C)C2SC1` (stereo not drawn) [(4), 7-[2-(2,6-dimethyl-4-oxo-1-pyridinyl)acetylamino]desacetoxycephalosporanicacid, sodium salt], for which the MIC is above 1000 µg/mL in the data set on Streptococcus pyogenes (setting [3]), above 1000 µg/mL in data set [1] (setting [3]), above 1000 µg/mL in data set [2] (setting [4]) and 1000 µg/mL in the data set with Staphylococcus aureus (setting [3]). For the same compound, the “Acid Resistance” value in the data set “acid resistance” is “Yes”.

Turning to `CC1=C(C(=O)O)N2C(=O)C(NC(=O)Cn3ccc(=O)cc3)C2SC1` (stereo not drawn) [(2), 7-[2-(4-oxo-1-pyridinyl)acetylamino]desacetoxycephalosporanic acid], the MIC in the data set on Streptococcus pyogenes (setting [3]) was 1000 µg/mL (≈ 2860 µM); in data set [1] (setting [3]) it was above 1000 µg/mL; in data set [2] (setting [4]), above 1000 µg/mL; with Staphylococcus aureus (setting [3]), 1000 µg/mL (≈ 2860 µM). In the data set “acid resistance”, the “Acid Resistance” value is “Yes”.

`CC1(C)S[C@@H]2C(NC(=O)Cn3ccc(=O)c4ccccc43)C(=O)N2[C@H]1C(=O)[O-].[Na+]` (stereo partly drawn) [(6), 6-[2-(4-oxo-1-quinolinyl)acetylamino]penicillanic acid, sodium salt]: the MIC turned out to be 1000 µg/mL in the data set with Streptococcus pyogenes, 100 µg/mL in data set [1], 1000 µg/mL in data set [2] and 10 µg/mL with Staphylococcus aureus. In addition, the “Acid Resistance” value in the data set “acid resistance” is “Yes”.

Turning to `CC1(C)S[C@@H]2C(NC(=O)Cn3cc(I)c(=O)c(I)c3)C(=O)N2[C@H]1C(=O)[O-].[Na+]` (stereo partly drawn) [(3), 6-[2-(3,5-diiodo-4-oxo-1-pyridinyl)acetylamino]penicillanic acid, sodium salt], the MIC with Streptococcus pyogenes was above 1000 µg/mL; in data set [1], 100 µg/mL; in data set [2], above 1000 µg/mL; in the data set on Staphylococcus aureus, 10 µg/mL. The “Acid Resistance” value in “acid resistance” is reported as “Yes”.

Turning to `CC(=O)OCC1=C(C(=O)O)N2C(=O)C(NC(=O)Cn3ccc(=O)cc3)C2SC1` (stereo not drawn) [(5), 7-[2-(4-oxo-1-pyridinyl)acetylamino]cephalosporanicacid, sodium salt], the MIC in the data set with Streptococcus pyogenes (setting [3]) was determined as 100 µg/mL; in data set [1] (setting [3]), 100 µg/mL; in data set [2] (setting [4]), 1000 µg/mL; in the data set with Staphylococcus aureus (setting [3]), 10 µg/mL. In addition, the “Acid Resistance” value in the data set “acid resistance” is listed as “Yes”.
